Structures can show the parent of a compound that is named as a salt.

Regarding `COc1ccc(Nc2nc(-c3cccc(C(=O)Nc4ccc(C(=O)OCc5ccccc5)cc4)c3)cn3ccnc23)cc1OC` [Example 3, benzyl 4-(3-(8-(3,4-dimethoxyphenylamino)imidazo[1,2-a]pyrazin-6-yl)benzamido)benzoate], the melting point fell in the range of 154 to 160 °C.
For the molecule `COc1ccc(Nc2nc(-c3cccc(C(=O)Nc4ccc(C(=O)O)cc4C)c3)cn3ccnc23)cc1OC` (as salt: hydrochloride) [Example 2, 4-(3-(8-(3,4-dimethoxyphenylamino)imidazo[1,2-a]pyrazin-6-yl)benzamido)-3-methylbenzoic acid hydrochloride salt], the melting point lay in the range of 188 to 215 °C.

One may read the melting point as the temperature of the solid-liquid transition.

The record behind these values is patent publication US8697699B2, “Imidazopyrazine SYK inhibitors” (Gilead Connecticut, Inc., priority 2008, dated 2014).
